The structures appear in SMILES notation. Counter-ions that a name gives are not always drawn.

Here are results for seven molecules from patent US7754759B2, “Arylsulfonyl chromans as 5-HT6 inhibitors” (Roche Palo Alto LLC, priority 2005, dated 2010).

In series [1] the target is T1, recombinant human 5-HT6 receptor (Homo sapiens, UniProt P50406).
T1 construct: expressed in transfected cells
Description: Radioligand binding, [3H]LSD competition at 5-HT6 receptor. As to conditions: membranes of HEK293 cells expressing recombinant human 5-HT6 receptor, 37° C., read-out: pKi for the 5-HT6 receptor (converted). How it is done:
(§1) The binding activity of compounds of this invention in vitro was determined as follows. Duplicate determinations of 5-HT6 ligand affinity were made by competing for binding of [^3H]LSD in cell membranes derived from HEK293 cells stably expressing recombinant human 5-HT6 receptor. Duplicate determinations of 5-HT2A ligand affinity were made by competing for binding of [^3H]Ketanserin (3-(2-(4-(4-fluorobenzoyl)piperidinol)ethyl)-2,4(1H,3H)-quinazolinedione) in cell membranes derived from CHO-K1 cells stably expressing recombinant human 5-HT2A receptor. Membranes were prepared from HEK 293 cell lines by the method described by Monsma et al., Molecular Pharmacology, Vol. 43 pp. 320-327 (1993), and from CHO-K1 cell lines as described by Bonhaus et al., Br J Pharmacol. June; 115(4):622-8 (1995).
(§2) For estimation of affinity at the 5-HT6 receptor, all determinations were made in assay buffer containing 50 mM Tris-HCl, 10 mM MgSO4, 0.5 mM EDTA, 1 mM ascorbic acid, pH 7.4 at 37° C., in a 250 microliter reaction volume. […]
(§3) Assay tubes containing [^3H] […] LSD or [^3H]Ketanserin were determined as radioactive counts per minute using Packard TopCount.
(§4) Displacement of [^3H]LSD or [^3H]Ketanserin from the binding sites was quantified by fitting concentration-binding data to a 4-parameter logistic equation: […]

The target in series [2] is T2, recombinant human 5-HT2A receptor (Homo sapiens, UniProt P28223).
T2 construct: expressed in transfected cells
Put plainly: Radioligand binding, [3H]Ketanserin competition at 5-HT2A receptor. As to conditions: membranes of CHO-K1 cells expressing recombinant human 5-HT2A receptor, 32° C., read-out: pKi for the 5-HT2A receptor (converted). How it is done:
as §1, §2, §3, §4

T1 sequence (P50406 whole entry): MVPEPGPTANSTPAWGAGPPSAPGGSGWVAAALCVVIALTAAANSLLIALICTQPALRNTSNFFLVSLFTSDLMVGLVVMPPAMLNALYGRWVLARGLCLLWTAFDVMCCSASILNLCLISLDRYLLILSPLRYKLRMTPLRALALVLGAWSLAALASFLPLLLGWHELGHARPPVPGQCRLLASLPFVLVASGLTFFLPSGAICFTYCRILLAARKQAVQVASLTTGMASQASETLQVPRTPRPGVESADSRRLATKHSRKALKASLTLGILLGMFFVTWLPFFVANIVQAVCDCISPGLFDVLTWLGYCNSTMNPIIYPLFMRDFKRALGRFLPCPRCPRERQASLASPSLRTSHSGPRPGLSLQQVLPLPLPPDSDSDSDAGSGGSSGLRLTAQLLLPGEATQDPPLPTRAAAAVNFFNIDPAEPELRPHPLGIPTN
T2 sequence (P28223 whole entry): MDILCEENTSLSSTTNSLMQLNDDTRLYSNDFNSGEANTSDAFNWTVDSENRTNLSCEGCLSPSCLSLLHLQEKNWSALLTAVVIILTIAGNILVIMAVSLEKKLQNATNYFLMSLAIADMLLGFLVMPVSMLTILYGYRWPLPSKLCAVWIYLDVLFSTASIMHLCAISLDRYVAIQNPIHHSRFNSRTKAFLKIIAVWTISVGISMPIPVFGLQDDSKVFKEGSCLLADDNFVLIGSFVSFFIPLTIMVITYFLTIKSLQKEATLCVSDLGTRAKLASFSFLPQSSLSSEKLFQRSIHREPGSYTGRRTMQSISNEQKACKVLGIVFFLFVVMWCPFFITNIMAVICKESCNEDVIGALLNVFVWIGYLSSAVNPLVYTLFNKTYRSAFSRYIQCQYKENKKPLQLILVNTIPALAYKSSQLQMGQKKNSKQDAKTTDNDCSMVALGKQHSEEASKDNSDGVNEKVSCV

For the molecule `C[C@H](O)C(=O)NC[C@H]1CCc2ccc(S(=O)(=O)c3ccccc3)cc2O1` (stereo in doubt) [Compound 30, (R)-N-(7-Benzenesulfonyl-chroman-2-ylmethyl)-2-hydroxy-propionamide], the melting point (commonly the temperature, or range, at which the solid turns liquid) was 129.5 to 131.5 °C. For `CNC[C@@H]1CCc2ccc(S(=O)(=O)c3ccccc3)cc2O1` [Compound 7, (S)-(7-Benzenesulfonyl-chroman-2-ylmethyl)-methyl-amine], the Ki in series [1] is approximately 0.1 nM; in series [2], approximately 56.2 nM.

In turn, `CNCC1CC(=O)c2ccc(S(=O)(=O)c3ccccc3)cc2O1` (centres unmarked) (as salt: TFA) [Compound 1, 7-Benzenesulfonyl-2-methylaminomethyl-chroman-4-one] came in with a melting point of 157.8 to 189.6 °C.

On to `NC[C@H]1CCc2ccc(S(=O)(=O)c3cccc(F)c3)cc2O1` [Compound 46, (R)-C-[7-(3-Fluoro-benzenesulfonyl)-chroman-2-yl]-methylamine], for which the melting point is 257.1 to 258.9 °C. Still for that read-out and setting: as for `CNCC1CC(C)(O)c2ccc(S(=O)(=O)c3ccccc3)cc2O1` (centres unmarked) (as salt: trifluoroacetate) [Compound 4, 7-Benzenesulfonyl-4-methyl-2-methylaminomethyl-chroman-4-ol], the figure is 163.9 to 165.3 °C; as for `CNC[C@H]1CCc2ccc(S(=O)(=O)c3cccc(F)c3)cc2O1` [Compound 35, (R)-[7-(3-Fluoro-benzenesulfonyl)-chroman-2-ylmethyl]-methyl-amine], 259 to 261 °C. The same measure, in the same setting: as for `CNCC1CCc2ccc(S(=O)(=O)c3ccccc3)cc2O1` (centres unmarked) (as salt: TFA) [Compound 3, (7-Benzenesulfonyl-chroman-2-ylmethyl)-methyl-amine], the figure is 196.2 to 198.2 °C.
